Assay results: patent US20060069132A1, “Azolecarboxamide herbicides” (priority 2004, published 2006)

Columns and labels:
Assay in all cases: Test E pre-/postemergence herbicide test
guineagrass = type: in vivo, Panicum maximum; settings: Preemergence
Method in brief: (§1)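 Test chemicals in a non-phytotoxic solvent mixture with surfactant applied preemergence to planted seeds and postemergence to plants 2 to 18 cm tall (1- to 4-leaf stage). After 12 to 14 days in the greenhouse, injury rated visually against untreated controls on a 0–100 scale (0 no effect, 100 complete control).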

southern sandbur = type: in vivo, Cenchrus echinatus; settings: Preemergence
Method in brief: as §1

common chickweed = type: in vivo, Stellaria media; settings: Preemergence
Source text: Seeds of plant species selected from bipinnate beggarticks (Bidens bipinnata L.), hairy beggarticks (Bidens radiata Thuill.), bermudagrass (Cynodon dactylon (L.) Pers.), Surinam grass (Urochloa decumbens (Staph) R. D. Webster, previously named Brachiaria decumbens Stapf), large crabgrass (Digitaria sanguinalis (L.) Scop.), green foxtail (Setaria viridis (L.) P. Beauv.), goosegrass (Eleusine indica (L.) Gaertn.), johnsongrass (Sorghum halepense (L.) Pers.), kochia (Kochia scoparia (L.) Schrad.), pitted morningglory (Ipomoea lacunosa L.), purple nutsedge (Cyperus rotundus L.), common ragweed (Ambrosia elatior L.), mustard (Brassica nigra (L.) W. D. J. Koch), guineagrass (Panicum maximum Jacq.), dallisgrass (Paspalum dilatatum Poir.), barnyardgrass (Echinochloa crus-galli (L). P. Beauv.), southern sandbur (Cenchrus echinatus L.), common sowthistle (Sonchus oleraceous L.), prickly sida (Sida spinosa L.), Italian ryegrass (Lolium multiflorum Lam.), common purslane (Portulaca oleracea L.), broadleaf signalgrass (Brachiaria platyphylla (Griseb.) Nash), common groundsel (Senecio vulgaris L.), common chickweed (Stellaria media (L.) Vill/Cyr.), tropical spiderwort (Commelina benghalensis L.), annual bluegrass (Poa annua L.), downy bromegrass (Bromus tectorum L.), itchgrass (Rottboellia cochinchinensis (L.) L.f.), quackgrass (Elytrigia repens (L.) Nevski), Canada horseweed (Erigeron Canadensis L.), field bindweed (Convolvulus arvensis L.), spotted spurge (Euphorbia maculata L.), common mallow (Malva sylvestris (=s silvestris) L.), and Russian thistle (Salsola kali L. ssp. Ruthenica (Iljin) Soo) were planted and treated preemergence with test chemicals formulated in a non-phytotoxic solvent mixture which included a surfactant.
At the same time, plants selected from these weed species were treated with postemergence applications of some of the test chemicals formulated in the same manner. Plants ranged in height from 2 to 18 cm (1- to 4-leaf stage) for postemergence treatments. Treated plants and controls were maintained in a greenhouse for 12 to 14 days, after which time all species were compared to controls and visually evaluated. Plant response ratings, summarized in Table E, are based on a scale of 0 to 100 where 0 is no effect and 100 is complete control. A dash (-) response means no test result.

green foxtail = type: in vivo, Setaria viridis; settings: Preemergence
Method in brief: as §1

goosegrass = type: in vivo, Eleusine indica; settings: Preemergence
Method in brief: as §1

mustard = type: in vivo, Brassica nigra; settings: Preemergence
Method in brief: as §1

Italian ryegrass = type: in vivo, Lolium multiflorum; settings: Preemergence
Method in brief: as §1

tropical spiderwort = type: in vivo, Commelina benghalensis; settings: Preemergence, scale 0 (no effect) to 100 (complete control)
Method in brief: as §1

barnyardgrass = type: in vivo, Echinochloa crus-galli; settings: Preemergence
Method in brief: as §1

broadleaf signalgrass = type: in vivo, Brachiaria platyphylla; settings: Preemergence
Method in brief: as §1

[1] = 250 g ai/ha, scale 0 (no effect) to 100 (complete control)
[2] = 500 g ai/ha, scale 0 (no effect) to 100 (complete control)

CCc1nn(C(C)(C)C)nc1C(=O)Nc1cccc(C(=S)N(C)C)c1 [Compound 395]
85: Plant response rating, Signalgrass (broadleaf signalgrass; [1])
10: Plant response rating, Foxtail, Green (green foxtail; 62 g ai/ha, scale 0 to 100) | Plant response rating, Signalgrass (broadleaf signalgrass; 62 g ai/ha, scale 0 to 100)
50: Plant response rating, Sandbur (southern sandbur; 62 g ai/ha, scale 0 to 100) | Plant response rating, Barnyardgrass (barnyardgrass; 62 g ai/ha, scale 0 to 100)
95: Plant response rating, Goosegrass (goosegrass; [2]) | Plant response rating, Black Mustard (mustard; [2]) | Plant response rating, Ryegrass, Italian (Italian ryegrass; [2]) | Plant response rating, Barnyardgrass (barnyardgrass; [1]) | Plant response rating, Barnyardgrass (barnyardgrass; [2])
60: Plant response rating, Sandbur (southern sandbur; 125 g ai/ha, scale 0 to 100) | Plant response rating, Black Mustard (mustard; 125 g ai/ha, scale 0 to 100) | Plant response rating, Spiderwort (tropical spiderwort; 250 g ai/ha) | Plant response rating, Barnyardgrass (barnyardgrass; 125 g ai/ha, scale 0 to 100)
80: Plant response rating, Guineagrass (guineagrass; 62 g ai/ha, scale 0 to 100) | Plant response rating, Sandbur (southern sandbur; [1]) | Plant response rating, Sandbur (southern sandbur; [2]) | Plant response rating, Foxtail, Green (green foxtail; [1]) | Plant response rating, Goosegrass (goosegrass; 62 g ai/ha, scale 0 to 100) | Plant response rating, Goosegrass (goosegrass; 125 g ai/ha, scale 0 to 100) | Plant response rating, Ryegrass, Italian (Italian ryegrass; 125 g ai/ha, scale 0 to 100)
75: Plant response rating, Signalgrass (broadleaf signalgrass; 125 g ai/ha, scale 0 to 100)
20: Plant response rating, Ryegrass, Italian (Italian ryegrass; 62 g ai/ha, scale 0 to 100)
90: Plant response rating, Chickweed (common chickweed; 125 g ai/ha, scale 0 to 100) | Plant response rating, Foxtail, Green (green foxtail; [2]) | Plant response rating, Goosegrass (goosegrass; [1]) | Plant response rating, Black Mustard (mustard; [1]) | Plant response rating, Ryegrass, Italian (Italian ryegrass; [1]) | Plant response rating, Spiderwort (tropical spiderwort; 500 g ai/ha) | Plant response rating, Signalgrass (broadleaf signalgrass; [2])
40: Plant response rating, Foxtail, Green (green foxtail; 125 g ai/ha, scale 0 to 100) | Plant response rating, Black Mustard (mustard; 62 g ai/ha, scale 0 to 100)
100: Plant response rating, Guineagrass (guineagrass; 125 g ai/ha, scale 0 to 100) | Plant response rating, Guineagrass (guineagrass; [1]) | Plant response rating, Guineagrass (guineagrass; [2]) | Plant response rating, Chickweed (common chickweed; [1]) | Plant response rating, Chickweed (common chickweed; [2])
